Experimental data taken from patent US20250221410A1, “SUBSTITUTED 2-C-AZINES AND SALTS THEREOF, AND USE THEREOF AS HERBICIDAL ACTIVE SUBSTANCES” (BAYER AKTIENGESELLSCHAFT, priority 2022, published 2025).

Key:
Assay type in all cases: in vivo
[1] = system: AMARE: Amaranthus retroflexus; test: Post-emergence herbicidal efficacy at 1280 g/ha, AMARE; conditions: rated visually after about 3 weeks vs untreated controls, 100% = plants have died, 0% = like control plants
How it was run: (§1)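 Read-out is visual percent activity relative to untreated controls (100% = plants died, 0% = no effect), scored about 3 weeks after treatment. Application was post-emergence at the one-leaf stage in the greenhouse, as WP or EC in water with 0.5% additive at 600 L/ha.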

[2] = system: ABUTH: Abutilon theophrasti; test: Pre-emergence herbicide efficacy at 1280 g/ha, ABUTH; conditions: visual scoring after about 3 weeks vs untreated controls
How it was run: (§2)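 Pre-emergence pot test in sandy loam: WP or EC formulations sprayed onto covering soil after sowing, as aqueous suspension/emulsion with 0.5% additive at 600 L/ha water. Plants grown in greenhouse; after about 3 weeks, efficacy scored visually as % versus untreated controls (100% = dead, 0% = like control).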

[3] = system: VERPE: Veronica persica; test: Post-emergence herbicidal efficacy at 1280 g/ha, VERPE; conditions: visual rating about 3 weeks after treatment vs untreated controls
How it was run: as §1

[4] = system: AMARE: Amaranthus retroflexus; test: Pre-emergence herbicide efficacy at 1280 g/ha, AMARE; conditions: visual scoring after about 3 weeks vs untreated controls
How it was run: as §2

[5] = system: MATIN: Matricaria inodora; test: Pre-emergence herbicide efficacy at 1280 g/ha, MATIN; conditions: visual scoring after about 3 weeks vs untreated controls
Source text: (§3) Seeds of mono- and dicotyledonous weed plants were placed in plastic pots in sandy loam soil (doubly sown with one species each of mono- or dicotyledonous weed plants per pot) and covered with soil. The compounds of the invention, formulated in the form of wettable powders (WP) or as emulsion concentrates (EC), were then applied to the surface of the covering soil as aqueous suspension or emulsion with addition of 0.5% additive at a water application rate of 600 litres per hectare (converted). After the treatment, the pots were placed in a greenhouse and kept under good growth conditions for the test plants. After about 3 weeks, the efficacy of the preparations was scored visually in comparison with untreated controls as percentages. For example, 100% activity=the plants have died, 0% activity=like control plants. Tables C1 to C12 below show the effects of selected compounds of the general formula (I) according to Table 1 on various harmful plants and at an application rate corresponding to 1280 g/ha, which were obtained by the trial procedure specified above.

[6] = system: STEME: Stellaria media; test: Pre-emergence herbicide efficacy at 1280 g/ha, STEME; conditions: visual scoring vs untreated controls
How it was run: as §2

[7] = system: VERPE: Veronica persica; test: Pre-emergence herbicide efficacy at 1280 g/ha, VERPE; conditions: visual scoring vs untreated controls
How it was run: as §2

[8] = system: POAAN: Poa annua; test: Pre-emergence herbicide efficacy at 1280 g/ha, POAAN; conditions: visual scoring after about 3 weeks vs untreated controls
How it was run: as §2

[9] = system: ABUTH: Abutilon theophrasti; test: Post-emergence herbicidal efficacy at 1280 g/ha, ABUTH; conditions: rated visually after about 3 weeks vs untreated controls, 100% = plants have died, 0% = like control plants
How it was run: as §1

[10] = system: KCHSC: Kochia scoparia; test: Post-emergence herbicidal efficacy at 1280 g/ha, KCHSC; conditions: visual rating about 3 weeks after treatment vs untreated controls
How it was run: as §1

[11] = system: DIGSA: Digitaria sanguinalis; test: Pre-emergence herbicide efficacy at 1280 g/ha, DIGSA; conditions: visual scoring after about 3 weeks vs untreated controls
How it was run: as §2

[12] = system: SETVI: Setaria viridis; test: Pre-emergence herbicide efficacy at 1280 g/ha, SETVI; conditions: visual scoring vs untreated controls
How it was run: as §2

[13] = system: KCHSC: Kochia scoparia; test: Pre-emergence herbicide efficacy at 1280 g/ha, KCHSC; conditions: visual scoring after about 3 weeks vs untreated controls
Source text: as §3

[14] = system: ECHCG: Echinochloa crus-galli; test: Pre-emergence herbicide efficacy at 1280 g/ha, ECHCG; conditions: visual scoring after about 3 weeks vs untreated controls
How it was run: as §2

[15] = system: POAAN: Poa annua; test: Post-emergence herbicidal efficacy at 1280 g/ha, POAAN; conditions: visual rating about 3 weeks after treatment vs untreated controls
How it was run: as §1

[16] = system: SETVI: Setaria viridis; test: Post-emergence herbicidal efficacy at 1280 g/ha, SETVI; conditions: visual rating about 3 weeks after treatment vs untreated controls
Protocol: (§4) Seeds of mono- and dicotyledonous weed plants were placed in plastic pots in sandy loam soil (doubly sown with in each case one species of mono- or dicotyledonous weed plants per pot), covered with soil and cultivated in a greenhouse under controlled growth conditions. 2 to 3 weeks after sowing, the test plants were treated at the one-leaf stage. The compounds of the invention, formulated in the form of wettable powders (WP) or as emulsion concentrates (EC), were applied to the green parts of the plants as aqueous suspension or emulsion with addition of 0.5% additive at a water application rate equivalent to 600 litres per hectare. After the test plants had been kept in the greenhouse under optimum growth conditions for about 3 weeks, the activity of the preparations was rated visually in comparison to untreated controls. For example, 100% activity=the plants have died, 0% activity=like control plants. Tables A1 to A12 below show the effects of selected compounds of the general formula (I) according to Table 1 on various harmful plants and at an application rate corresponding to 1280 g/ha, which were obtained by the trial procedure specified above.

[17] = system: ECHCG: Echinochloa crus-galli; test: Post-emergence herbicidal efficacy at 1280 g/ha, ECHCG; conditions: rated visually after about 3 weeks vs untreated controls, 100% = plants have died, 0% = like control plants
Protocol: as §4

[18] = system: STEME: Stellaria media; test: Post-emergence herbicidal efficacy at 1280 g/ha, STEME; conditions: visual rating about 3 weeks after treatment vs untreated controls
How it was run: as §1

[19] = system: DIGSA: Digitaria sanguinalis; test: Post-emergence herbicidal efficacy at 1280 g/ha, DIGSA; conditions: rated visually after about 3 weeks vs untreated controls, 100% = plants have died, 0% = like control plants
Protocol: as §4

SMILES	Post-emergence efficacy at 1280 g/ha against AMARE in % [1]	Pre-emergence efficacy against ABUTH [2]	Post-emergence efficacy against VERPE [3]	Pre-emergence efficacy against AMARE [4]	Pre-emergence efficacy against MATIN [5]	Pre-emergence efficacy against STEME in % [6]	Pre-emergence efficacy against VERPE in % [7]	Pre-emergence efficacy against POAAN [8]	Post-emergence efficacy at 1280 g/ha against ABUTH in % [9]	Post-emergence efficacy against KCHSC [10]	Pre-emergence efficacy against DIGSA [11]	Pre-emergence efficacy against SETVI in % [12]	Pre-emergence efficacy against KCHSC [13]	Pre-emergence efficacy against ECHCG [14]	Post-emergence efficacy against POAAN [15]	Post-emergence efficacy against SETVI [16]	Post-emergence efficacy at 1280 g/ha against ECHCG in % [17]	Post-emergence efficacy against STEME [18]	Post-emergence efficacy at 1280 g/ha against DIGSA in % [19]
Clc1cnc(Oc2ccccc2Cc2ncccn2)nc1 [Example 1-76]	90%	90%	90%	100%	90%	90%	90%												
Fc1cnc(Cc2ccccc2Oc2ncc(F)cn2)nc1 [Example 1-89]	100%	100%	100%	100%	100%	90%	100%	100%	90%	100%	100%	90%	100%						
Fc1ccc(Cc2ccccc2Oc2ncc(F)cn2)nc1 [Example 1-93]	100%	100%	100%	100%	100%	100%	100%	100%	90%	100%	100%	100%	100%	100%	100%				
Fc1ccc(Sc2ccccc2Cc2ncc(Cl)cn2)cc1 [Example 1-99]	100%	90%	90%	100%		100%		100%	90%	100%	100%	100%		100%	100%	90%	100%	100%	90%
FC(F)(F)CCSc1ccccc1Cc1ncc(Cl)cn1 [Example 1-112]	100%	90%	100%	100%		90%	100%	90%	100%	100%	100%	90%	100%	100%	100%	90%	90%	100%	90%
